Experimental data published in patent US6329390A, “5-Bicycloindole compounds” (NPS Allelix Corp., priority 1998, dated 2001).

Columns and labels:
[1] = target: T1, 5-HT1D receptor (Homo sapiens, UniProt P28221); assay: Binding affinity, inhibition of 3H-serotonin binding to membranes of cells expressing the 5-HT1D receptor; details: for inhibition at 0.1 µM: 100 nM of test compound, 3H-serotonin 1 nM, 60 minute incubation at 22° C., read-out: affinity for the 5-HT1D receptor: amount (in percent) of binding of the radioligand that is inhibited; for binding at the 5-HT1D receptor (in words): at a concentration of 100 nM
T1 construct: expressed in transfected cells
T1 sequence (P28221 whole entry): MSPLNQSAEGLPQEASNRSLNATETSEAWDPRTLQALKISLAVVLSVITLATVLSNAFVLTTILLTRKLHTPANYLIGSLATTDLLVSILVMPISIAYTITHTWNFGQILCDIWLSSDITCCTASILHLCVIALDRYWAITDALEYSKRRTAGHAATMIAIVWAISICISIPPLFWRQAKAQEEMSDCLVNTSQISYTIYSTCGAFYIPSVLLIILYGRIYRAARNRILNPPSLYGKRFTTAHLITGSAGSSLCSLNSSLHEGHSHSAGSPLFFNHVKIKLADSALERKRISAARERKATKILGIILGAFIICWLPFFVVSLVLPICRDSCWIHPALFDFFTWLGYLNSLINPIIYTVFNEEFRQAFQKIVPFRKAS
Method: (§1) Selected compounds of the previous examples, as well as reference compounds were evaluated for binding affinity using cell types receptive specifically to 5-HT1D and 5-HT1B ligands. The assay protocol generally entailed the incubation of membranes prepared f cells expressing the 5-HT1D or 5-HT1B subtype of 5-HT receptors with ^3 H serotonin (1 nM for 5-HT1 D and 2.5 nM for 5-HT1B). Specific concentrations of the test compound were incubated with the radioligand and the membrane homogenates prepared from the recombinant cells. After a 60 minute incubation at 22° C., the incubation was terminated by vacuum filtration. The filters were washed with buffer and counted for radioactivity using liquid scintillation spectroscopy. The affinity of the test compound for the 5-HT1D receptor is expressed as the amount (in percent) of binding of the radioligand that is inhibited in the presence of 100 nM of test compound. A greater percent inhibition indicates greater affinity for the 5-HT1D receptor.

[2] = target: T2, 5-HT1B receptor (Homo sapiens, UniProt P28222); assay: Binding affinity, inhibition of 3H-serotonin binding to membranes of cells expressing the 5-HT1B receptor; details: for binding at the 5-HT1B receptor (in words): at a concentration of 100 nM; for inhibition at 0.1 µM: 100 nM of test compound, 3H-serotonin 2.5 nM, 60 minute incubation at 22° C., read-out: affinity for the 5-HT1B receptor (percent inhibition of radioligand binding)
T2 construct: expressed in transfected cells
T2 sequence (P28222 whole entry): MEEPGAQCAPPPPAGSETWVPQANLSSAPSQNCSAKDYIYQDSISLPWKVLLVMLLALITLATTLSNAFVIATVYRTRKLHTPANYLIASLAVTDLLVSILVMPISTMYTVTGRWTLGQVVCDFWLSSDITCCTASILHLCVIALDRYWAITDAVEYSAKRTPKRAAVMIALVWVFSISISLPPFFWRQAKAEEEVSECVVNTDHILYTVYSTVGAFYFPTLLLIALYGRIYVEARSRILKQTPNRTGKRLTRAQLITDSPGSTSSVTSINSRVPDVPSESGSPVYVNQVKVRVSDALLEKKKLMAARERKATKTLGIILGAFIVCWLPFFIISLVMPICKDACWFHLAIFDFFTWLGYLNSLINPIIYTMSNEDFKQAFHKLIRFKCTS
Method: as §1

SMILES | inhibition at 0.1 µM [1] | binding at the 5-HT1D receptor (in words) [1] | binding at the 5-HT1B receptor (in words) [2] | inhibition at 0.1 µM [2]
CN(C)CCc1c[nH]c2ccc(C3(O)CCN4CCCC4C3)cc12 (single isomer, unassigned) [Example 6c, 5-[(7-R or S)(8a-R,S)-7-Hydroxyoctahydroindolizin-7-yl]-3-[2-(N,N-dimethylamino)ethyl]indole] | > 90% | – | – | –
CN1CCC[C@H]1Cc1c[nH]c2ccc(C3CCN4CCCC4C3)cc12 (single isomer, unassigned) [Example 8a, 5-[(7R or 7S)(8a-R,S)-Octahydroindolizin-7-yl]-3-{[(2S)-N-methylpyrrolidin-2-yl]methyl}-1 H-indole] | – | little, if any, binding | little, if any, binding | –
CN1CCC[C@H]1Cc1c[nH]c2ccc(C3CCN4CCCC4C3)cc12 (single isomer, unassigned) [Example 8b, 5-[(7R or 7S)(8a-R,S)-Octahydroindolizin-7-yl] 3-{[(2S)-N-methylpyrrolidin-2-yl]methyl}-1 H-indole] | – | little, if any, binding | little, if any, binding | –
CN1CCC[C@H]1Cc1c[nH]c2ccc(C3(O)CCN4CCCC4C3)cc12 (stereo partly drawn) [Example 6a, 5-[(7-R,S)(8a-R,S)-7-Hydroxyoctahydroindolizin-7-yI]-3-{[(2S)-N-methylpyrrolidin-2-yl]methyl}-1 H-indole] | – | little, if any, binding | little, if any, binding | –
CN1CCC[C@@H]1Cc1c[nH]c2ccc(C3(O)CCN4CCCC4C3)cc12 (stereo partly drawn) [Example 6b, 5-[(7-R,S)(8a-R,S)-7-Hydroxyoctahydroindolizin-7-yl]-3-{[(2R)-N-methylpyrrolidin-2-yl]methyl}-1H-indole] | – | – | – | < 30%
CN1CCC[C@H]1Cc1c[nH]c2ccc(C3=CC4CCCN4CC3)cc12 (stereo partly drawn) [Example 7a, 5-[(8a-R,S)-1,2,3,5,6,8a-Hexahydroindolizin-7-yl]-3-{[(2S)-N-methylpyrrolidin-2-yl]methyl}-1 H-indole] | – | little, if any, binding | little, if any, binding | –
CN1CCC[C@H]1Cc1c[nH]c2ccc(C3=CCN4CCCC4C3)cc12 (stereo partly drawn) [Example 7b, 5-[(8a-R,S)-1,2,3,5,8,8a-Hexahydroindolizin-7-yl]-3-{[(2S)-N-methylpyrrolidin-2-yl]methyl}-1 H-indole] | – | little, if any, binding | little, if any, binding | –
CN1CCC[C@@H]1Cc1c[nH]c2ccc(C3=CCN4CCCC4C3)cc12 (stereo partly drawn) [Example 7d, 5-[(8a-R,S)-1,2,3,5,8,8a-Hexahydroindolizin-7-yl]-3-{[(2R)-N-methylpyrrolidin-2-yl]methyl}-1H-indole] | > 90% | – | – | –
CN1CCC[C@@H]1Cc1c[nH]c2ccc(C3CCN4CCCC4C3)cc12 (stereo partly drawn) [Example 8c, 5-[(7-R,S)(8a-R,S)-Octahydroindolizin-7-yl]- -{[(2R)-N-methylpyrrolidin-2-yl]methyl}-1H-indole] | – | – | – | < 30%
